Entries after “also recorded” stand apart in the source; their conditions may differ.
System: actin polymerization
Assay: Inhibition study: actin polymerization inhibitor/activator, VEGFB ELISA
Assay type: cell-based, human
Conditions: 24 hr
Protocol: After cell encapsulation with two different molecular weight polymers such as 5 kDa and 30 kDa, the cells were rinsed and resuspended in the media containing actin polymerization inhibitor (Cytochalastin D (CytoD): 2 μM) and activator (lysophosphatidic (LPA): […] After the incubation for 24 hr with different pharmacological chemicals, the supernatants from different treatment groups were collected to measure VEGFB production from the cells using ELISAs as above.

Molecule	VEGFB concentration in NPCs coated with 30 kDa PEG (2 μM CytoD)	VEGFB production in NPCs coated with 5 kDa PEG (2 μM CytoD)	VEGFB production in 30 kDa encapsulated NPCs (LPA)
C=C1[C@@H](C)[C@H]2[C@H](Cc3ccccc3)NC(=O)[C@]23[C@H](OC(C)=O)/C=C/[C@@](C)(O)C(=O)[C@@H](C)C/C=C/[C@H]3[C@@H]1O [CytoD, Cytochalastin D]	not significantly different	significantly different from other groups; also recorded: increased VEGFB production	
lysophosphatidic acid [LPA]			significantly different from other groups; also recorded: decreased production of VEGFB

From US20210130769A1, “Method for Single Cell Encapsulation via Metabolic Glycoengineering and Copper-Free Click Chemistry” (The Board of Trustees Of the Leland Stanford Junior …, priority 2019, published 2021)
